From patent publication US11192869B2, “CFTR regulators and methods of use thereof” (THE REGENTS OF THE UNIVERSITY OF CALIFORNIA, priority 2015, dated 2021)
“Also recorded” adds a separate entry of the source.

What was measured:
[1] = Pharmacokinetics after ip or oral administration; assay type: in vivo, mouse
Description: Pharmacokinetics. All animal experiments were approved by UCSF Institutional Animal Care and Use Committee. Female CD1 mice were treated with 10 mg/kg CFTRact-J027 (saline containing 5% DMSO and 10% Kolliphor HS 15) either intraperitoneally (ip) or orally. Blood was collected at 15, 30, 60, 150, 240 and 360 min after treatment by orbital puncture and centrifuged at 5000 rpm for 15 min to separate plasma. Plasma samples (60 μL) were mixed with 300 μL acetonitrile and centrifuged at 13000 rpm for 20 min, and 90 μL of the supernatant was used for LC/MS. The solvent system consisted of a linear gradient from 5 to 95% acetonitrile over 16 min (0.2 ml/min flow). Mass spectra was acquired on a mass spectrometer (Waters 2695 and Micromass ZQ) using electrospray (+) ionization, mass ranging from 100 to 1500 Da, cone voltage 40 V. Calibration standards were prepared in plasma from untreated mice to which known amounts of CFTRact-J027 were added.

[2] = tested on: tear secretion; test: Tear secretion (phenol red thread); assay type: in vivo, mouse; settings: single topical dose, for (at least) four hours
[3] = In vitro metabolic stability; assay type: in vitro ADME, mouse
Description: In vitro metabolic stability. CFTRact-J027 (5 μM) was incubated for specified times at 37° C. with mouse liver microsomes (1 mg protein/ml; Sigma-Aldrich) in potassium phosphate buffer (100 mM) containing 1 mM NADPH, as described. The mixture was then chilled on ice, and 0.5 ml of ice-cold ethyl acetate was added. Samples were centrifuged for 15 min at 3000 rpm, the supernatant evaporated to dryness, and the residue was dissolved in 100 μL mobile phase (acetonitrile:water, 3:1) for LC/MS and assayed as described above.

[4] = tested on: FRT cells; test: Cytotoxicity, Alamar Blue assay; assay type: cell-based, rat; settings: 20 μM
Description: Chronic administration and toxicity studies.
cAMP and cytotoxicity assays. Intracellular cAMP activity was measured using a GloSensor luminescence assay (Promega Corp., Madison, Wis., USA). FRT cells stably transfected with the pGloSensor cAMP plasmid (Promega Corp.) were cultured in white 96-well microplates (Corning Costar) overnight. Cells were then washed three times with PBS and incubated with 5 μM test compound for 10 min in the absence and presence of 100 nM forskolin.

[5] = tested on: mid-jejunal loops of cystic fibrosis mice; test: In vivo intestinal fluid absorption, closed mid-jejunal loops of CF mice; parameters: species or system mouse; settings: 30 min
Description: In vivo intestinal secretion and absorption. Mice (wildtype or CF) were given access to 5% dextrose water but not solid food for 24 h before experiments. Mice were anesthetized with isoflurane and body temperature was maintained during surgery at 36-38° C. using a heating pad. A small abdominal incision was made to expose the small intestine, and closed mid-jejunal loops (length 2-3 cm) were isolated by sutures. Loops were injected with 100 μL vehicle alone or […] CFTRact-J027 in vehicle. The abdominal incision was closed with sutures, and mice were allowed to recover from anesthesia. Intestinal loops were removed at 90 min and loop length and weight were measured to quantify fluid secretion. Intestinal absorption was measured in CF mice (to prevent secretion) as described above, except that the loops were removed at 0 or 30 min. Absorption was calculated as 1-(loop weight at 0 min−loop weight at 30 min)/loop weight at 0 min.
In vivo intestinal secretion and absorption. […] Intestinal loops were removed at 90 min and loop length and weight were measured to quantify fluid secretion. Intestinal absorption was measured in CF mice (to prevent secretion) as described above, except that the loops were removed at 0 or 30 min. Absorption was calculated as 1-(loop weight at 0 min−loop weight at 30 min)/loop weight at 0 min.

[6] = tested on: ocular surface; test: Ocular surface potential difference measurements; assay type: in vivo, mouse; settings: wild-type mice, 1-10 μM
Description: Ocular surface potential difference measurements. Open-circuit transepithelial PD were measured continuously in anesthetized mice in response to serial perfusions of different solutions over the ocular surface, as described (21). Mice were anesthetized with Avertin (2,2,2-tribromoethanol, 125 mg/kg intraperitoneal, Sigma-Aldrich, St. Louis, Mo., USA), and core temperature was maintained at 37° C. using a heating pad. Eyes were oriented with the cornea and conjunctiva facing upward and exposed by retracting the eyelid with cross-action forceps. Solutions were isosmolar (320±10 mOsM; compositions provided in ref. 21) and contained 10μ[…] □ indomethacin to prevent CFTR activation by prostaglandins. The ocular surface was perfused at 6 mL/min through plastic tubing using a multireservoir gravity pinch-valve system (ALA Scientific, Westbury, N.Y., USA) and variable-flow peristaltic pump (medium flow model; Fisher Scientific, Fair Lawn, N.J., USA). A probe catheter was fixed 1 mm above the cornea using a micropositioner and a suction cannula was positioned 3 mm from the orbit. The measuring electrode was in contact to the perfusion catheter and connected to a high-impedance voltmeter (IsoMilivolt Meter; WPI). The reference electrode was grounded via a winged 21-gauge needle filled with isosmolar saline, and inserted subcutaneously in the abdomen. Measuring and reference electrodes consisted of Ag/AgCl with 3 M KCl agar bridges.
Ocular surface potential difference measurements. Open-circuit transepithelial PD were measured continuously in anesthetized mice in response to serial perfusions of different solutions over the ocular surface, as described (21). Mice were anesthetized with Avertin (2,2,2-tribromoethanol, 125 mg/kg intraperitoneal, Sigma-Aldrich, St. Louis, Mo., USA), and core temperature was maintained at 37° C. using a heating pad. Eyes were oriented with the cornea and conjunctiva facing upward and exposed by retracting the eyelid with cross-action forceps. […]

[7] = tested on: loperamide-induced mouse model of constipation; test: Loperamide-induced mouse model of constipation

With `Nc1ccc([N+](=O)[O-])cc1-c1nc2ccccc2n(Cc2ccccc2)c1=O` [CFTRact-J027, 3-(2-amino-5-nitrophenyl)-1-benzylquinoxalin-2(1H)-one] the “elimination half-life of serum concentration” value ([1]; 10 mg/kg ip) was roughly 16 min, the “bioavailability (in words)” value ([1]; 10 mg/kg oral) was “very low bioavailability; also recorded: minimal bioavailability” and the “blood levels relative to EC50 for CFTR activation” value ([1]; 10 mg/kg oral) was “well below the EC50”. For the same molecule, the “increase of tear fluid secretion” value [2] was “approximately two-fold”, the original compound remaining ([3]; 60 min) was 7% and the “hepatic/microsomal metabolism (in words)” value ([3]; liver microsomes) was “rapid in vitro metabolism; also recorded: rapid hepatic metabolism”. The elimination half-life ([3]; mouse liver microsomes, NADPH, 5 μM) was roughly 21 min, the cytotoxicity [4] was “did not show cytotoxicity” and the intestinal fluid absorption [5] was “did not affect”. For the same molecule, the “change in ocular surface PD (in words)” value [6] was “large hyperpolarizations”, the “stool weight, pellet number and water content” value ([7]; intraperitoneal 10 mg/kg, loperamide-treated mice, 3 h) was “normalizes stool output and water content” and the “stool output or water content in control mice” value ([7]; intraperitoneal, non-loperamide-treated mice) was “did not affect”. For the same molecule, the “effect in cystic fibrosis mice lacking functional CFTR” value ([7]; loperamide model, CF mice) was “without effect”, the “efficacy after chronic administration” value ([7]; oral 10 mg/kg for 7 days, loperamide 1 h after final dose) was “remained effective” and the “stool output and water content” value ([7]; oral administration (10 mg/kg, 1 h prior to loperamide), 10 mg/kg) was “normalized stool output and water content; also recorded: effective in normalizing stool output and water content”.
